Assay results from PubChem BioAssay AID256 (DTP/NCI, 2004).
Where “and” joins values, the source holds several entries; their conditions need not be identical. Equal entries are not always repeated. Toxic doses and inconclusive results are not listed. Rule for the calls: active = survival T/C of 150% or more; inactive = T/C below 125% in these data.

Tested on: CD2F1 mice, L1210 leukemia ip, survival T/C
Test: NCI In Vivo Anticancer Drug Screen. Data for tumor model L1210 Leukemia (intraperitoneal) in CD2F1 (CDF1) mice
Conditions: higher = longer survival
In short: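 Transplantable tumor in mice; compound-treated vs vehicle-treated groups. Read-out = treated/control ratio of the measured endpoint.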

[1] = endpoint: mean survival time, dose: 6.25 mg/kg/injection, schedule: Q01DX009 (ip), vehicle: saline
[2] = endpoint: mean survival time, dose: 25.0 mg/kg/injection, schedule: Q01DX009 (ip), vehicle: saline
[3] = endpoint: mean survival time, dose: 100.0 mg/kg/injection, schedule: Q04DX003 (ip), vehicle: saline with Tween-80
[4] = endpoint: mean survival time, dose: 200.0 mg/kg/injection, schedule: Q04DX003 (ip), vehicle: saline with Tween-80
[5] = endpoint: mean survival time, dose: 400.0 mg/kg/injection, schedule: Q04DX003 (ip), vehicle: saline with Tween-80
[6] = endpoint: mean survival time, dose: 100.0 mg/kg/injection, schedule: Q04DX003 (ip), vehicle: saline
[7] = endpoint: mean survival time, dose: 100.0 mg/kg/injection, schedule: Q04DX002 (ip), vehicle: saline with Tween-80
[8] = endpoint: mean survival time, dose: 200.0 mg/kg/injection, schedule: Q04DX002 (ip), vehicle: saline with Tween-80
[9] = endpoint: mean survival time, dose: 400.0 mg/kg/injection, schedule: Q04DX002 (ip), vehicle: saline with Tween-80
[10] = endpoint: mean survival time, dose: 25.0 mg/kg/injection, schedule: Q04DX003 (ip), vehicle: saline with Tween-80

Measured: T/C

COc1ccc(Nc2ccnc3cc(Cl)ccc23)cc1CN(CCCl)CCCl
inactive: [1] 117 % of control | [2] 88 % of control

COc1ccc(OC)c(C=C(C(C)=O)C(C)=O)c1
inactive: endpoint: mean survival time, dose: 12.5 mg/kg/injection, schedule: Q01DX009 (ip), vehicle: water 95 % of control | endpoint: mean survival time, dose: 25.0 mg/kg/injection, schedule: Q01DX009 (ip), vehicle: water 102 % of control | endpoint: mean survival time, dose: 50.0 mg/kg/injection, schedule: Q01DX009 (ip), vehicle: water 100 % of control | endpoint: mean survival time, dose: 100.0 mg/kg/injection, schedule: Q01DX009 (ip), vehicle: water 95 % of control | endpoint: mean survival time, dose: 200.0 mg/kg/injection, schedule: Q01DX009 (ip), vehicle: water 88 % of control

O=C(COc1cccc(Cl)c1)NCc1ccccc1NC(=O)CBr
inactive: endpoint: mean survival time, dose: 2.35 mg/kg/injection, schedule: Q01DX001 (ip), vehicle: saline with Tween-80 101 % of control | endpoint: mean survival time, dose: 4.7 mg/kg/injection, schedule: Q01DX001 (ip), vehicle: saline with Tween-80 97 % of control | endpoint: mean survival time, dose: 9.4 mg/kg/injection, schedule: Q01DX001 (ip), vehicle: saline with Tween-80 92 % of control

O=c1[nH]nc(OCc2ccccc2)c2ncn(Cc3ccccc3)c12
inactive: endpoint: mean survival time, dose: 12.5 mg/kg/injection, schedule: Q01DX005 (ip), vehicle: other 91 % of control | endpoint: mean survival time, dose: 100.0 mg/kg/injection, schedule: Q01DX005 (ip), vehicle: other 88 % of control | endpoint: mean survival time, dose: 200.0 mg/kg/injection, schedule: Q01DX005 (ip), vehicle: other 86 % of control

NC(=O)c1nnc(-c2ccccn2)[nH]c1=O
inactive: endpoint: mean survival time, dose: 25.0 mg/kg/injection, schedule: Q01DX001 (ip), vehicle: Klucel (hydroxypropylcellulose) (HPC) 94 % of control | endpoint: mean survival time, dose: 50.0 mg/kg/injection, schedule: Q01DX001 (ip), vehicle: Klucel (hydroxypropylcellulose) (HPC) 98 % of control | endpoint: mean survival time, dose: 100.0 mg/kg/injection, schedule: Q01DX001 (ip), vehicle: Klucel (hydroxypropylcellulose) (HPC) 98 % of control

O=C(O)/C=C/c1ccc(Cl)cc1Cl
inactive: [3] 95 % of control | [4] 95 % of control | [5] 86 % of control

CC(=O)C(C(C)=O)C(c1cccnc1)C(C(C)=O)C(C)=O
inactive: endpoint: mean survival time, dose: 100.0 mg/kg/injection, schedule: Q01DX001 (ip), vehicle: saline with Tween-80 104 % of control | endpoint: mean survival time, dose: 200.0 mg/kg/injection, schedule: Q01DX001 (ip), vehicle: saline with Tween-80 107 % of control | endpoint: mean survival time, dose: 400.0 mg/kg/injection, schedule: Q01DX001 (ip), vehicle: saline with Tween-80 98 % of control

CC12OC3(C)C4C(=O)OC1C1(C)OC4(C)C3C(=O)OC21
inactive: endpoint: mean survival time, dose: 100.0 mg/kg/injection, schedule: Q01DX001 (ip), vehicle: saline 106 % of control | [6] 100 % of control | endpoint: mean survival time, dose: 200.0 mg/kg/injection, schedule: Q01DX001 (ip), vehicle: saline 102 % of control | endpoint: mean survival time, dose: 200.0 mg/kg/injection, schedule: Q04DX003 (ip), vehicle: saline 102 % of control | endpoint: mean survival time, dose: 400.0 mg/kg/injection, schedule: Q01DX001 (ip), vehicle: saline 100 % of control | endpoint: mean survival time, dose: 400.0 mg/kg/injection, schedule: Q04DX003 (ip), vehicle: saline 97 % of control

O=S(=O)(O)O.[N-]=C(N)/N=C(\[NH-])N.[N-]=C(N)/N=C(\[NH-])N.[N-]=C(N)NC(=[N-])N.[Rh+3]
inactive: endpoint: mean survival time, dose: 25.0 mg/kg/injection, schedule: Q04DX003 (ip), vehicle: saline 96 % of control | [6] 100 % of control

CNC(=O)n1ncnc1N
inactive: endpoint: mean survival time, dose: 12.5 mg/kg/injection, schedule: Q01DX001 (ip), vehicle: carboxymethylcellulose (CMC) 95 % of control | endpoint: mean survival time, dose: 25.0 mg/kg/injection, schedule: Q01DX001 (ip), vehicle: carboxymethylcellulose (CMC) 100 % of control | endpoint: mean survival time, dose: 50.0 mg/kg/injection, schedule: Q01DX001 (ip), vehicle: carboxymethylcellulose (CMC) 95 % of control | endpoint: mean survival time, dose: 100.0 mg/kg/injection, schedule: Q01DX001 (ip), vehicle: carboxymethylcellulose (CMC) 91 % of control | endpoint: mean survival time, dose: 200.0 mg/kg/injection, schedule: Q01DX001 (ip), vehicle: carboxymethylcellulose (CMC) 93 % of control

O=c1c([N+](=O)[O-])c[nH]c2ccccc12
inactive: [7] 95 % of control | [8] 95 % of control | [9] 103 % of control

CN(C)c1nc(N)nc(-c2cc[n+]([O-])cc2)n1
inactive: endpoint: mean survival time, dose: 100.0 mg/kg/injection, schedule: Q04DX002 (ip), vehicle: saline 103 % of control | endpoint: mean survival time, dose: 200.0 mg/kg/injection, schedule: Q04DX002 (ip), vehicle: saline 88 % of control

C1CNCOC1
inactive: [1] 100 % of control | endpoint: mean survival time, dose: 12.5 mg/kg/injection, schedule: Q01DX009 (ip), vehicle: saline 95 % of control and 97 % of control | [2] 100 % of control and 102 % of control | endpoint: mean survival time, dose: 50.0 mg/kg/injection, schedule: Q01DX009 (ip), vehicle: saline 101 % of control and 110 % of control | endpoint: mean survival time, dose: 100.0 mg/kg/injection, schedule: Q01DX009 (ip), vehicle: saline 106 % of control and 107 % of control | endpoint: mean survival time, dose: 200.0 mg/kg/injection, schedule: Q01DX009 (ip), vehicle: saline 100 % of control | endpoint: median survival time, dose: 6.25 mg/kg/injection, schedule: Q01DX009 (ip), vehicle: saline 100 % of control | endpoint: median survival time, dose: 12.5 mg/kg/injection, schedule: Q01DX009 (ip), vehicle: saline 102 % of control | endpoint: median survival time, dose: 25.0 mg/kg/injection, schedule: Q01DX009 (ip), vehicle: saline 107 % of control | endpoint: median survival time, dose: 50.0 mg/kg/injection, schedule: Q01DX009 (ip), vehicle: saline 107 % of control | endpoint: median survival time, dose: 100.0 mg/kg/injection, schedule: Q01DX009 (ip), vehicle: saline 112 % of control

CCCCOC(=O)c1ccc(OC(=O)NCCC)cc1
inactive: endpoint: mean survival time, dose: 50.0 mg/kg/injection, schedule: Q01DX009 (ip), vehicle: Klucel (hydroxypropylcellulose) (HPC) 102 % of control | endpoint: mean survival time, dose: 100.0 mg/kg/injection, schedule: Q01DX009 (ip), vehicle: Klucel (hydroxypropylcellulose) (HPC) 108 % of control | endpoint: mean survival time, dose: 200.0 mg/kg/injection, schedule: Q01DX009 (ip), vehicle: Klucel (hydroxypropylcellulose) (HPC) 100 % of control

CN(C)c1ccc(/C=C2\C=Nc3ccccc32)cc1
inactive: [10] 87 % of control | [3] 87 % of control

Cc1ccc(C(=O)OCCN2CCOCC2)c([N+](=O)[O-])c1OCc1ccccc1
inactive: endpoint: mean survival time, dose: 100.0 mg/kg/injection, schedule: Q04DX002 (ip), vehicle: other 94 % of control | endpoint: mean survival time, dose: 200.0 mg/kg/injection, schedule: Q04DX002 (ip), vehicle: other 103 % of control | endpoint: mean survival time, dose: 400.0 mg/kg/injection, schedule: Q04DX002 (ip), vehicle: other 91 % of control

O=C(O)C1Cc2c([nH]c3ccccc23)C2CC(C3CC4c5[nH]c6ccccc6c5CC(C(=O)O)N4C3=O)C(=O)N12 (stereo not drawn)
inactive: [7] 97 % of control | [8] 93 % of control | [9] 89 % of control

COc1cc(OC)c(NC(=O)Oc2c(Cl)cccc2Cl)cc1Cl
inactive: endpoint: mean survival time, dose: 50.0 mg/kg/injection, schedule: Q01DX009 (ip), vehicle: saline with Tween-80 94 % of control | endpoint: mean survival time, dose: 100.0 mg/kg/injection, schedule: Q01DX009 (ip), vehicle: saline with Tween-80 97 % of control

O=C(O)c1c[nH]c2ccccc2c1=O
inactive: [3] 101 % of control | [4] 101 % of control | [5] 90 % of control

O=C(O)C1CCC=CC1c1ccccc1 (stereo not drawn)
inactive: [7] 95 % of control | [8] 102 % of control | [9] 91 % of control

OCCN1CCN(CCO)CC1.[Cl][Pt+2][Cl]
inactive: [10] 101 % of control | [3] 97 % of control | [4] 94 % of control
